The target of test [1] is T1, spinach Rubisco (Spinacia oleracea, UniProt P00875). In words: Radiolabelled [3H]-(±)-ABA binding assay (saturation and competition). Further details: Commercially available Rubisco from spinach (Sigma-Aldrich); catalogue # R8000; purchased Sigma-Aldrich R8000. The following applies: 25 nM [3H]-(±)-ABA. As to the method:
A fresh aliquot of this Rubisco was subsequently dissolved in binding buffer (50 mM bicine, 15 mM MgCl2, 20 mM NaCl, pH 7.9) and placed on ice. The total volume for each assay sample was 30 μL. Protein solution (30 μg protein) was mixed with [^3H]-(±)-ABA (specific activity 37 Ci mmol^-1 radiolabelled: non-radiolabelled ratio 1.8:1) at the indicated concentrations in the presence and absence of 500 μM (+)-ABA, incubated at RT for 30 minutes. Samples (15 μL) from each reaction were transferred into SPN columns (G-biosciences), to which 100 μL of cold OrgoSol^TM buffer (chilled at -20°C) was added. The columns were spun at 10,000 x g for 10 s and the wash repeated once. The matrix of each SPN column was then removed and placed in scintillation vials containing Aqasol^TM scintillation fluid and soaked for at least 24 hours prior to counting radioactivity using a Beckman Coulter Multi-Purpose Scintillation Counter. Control samples not containing the protein, but treated with [^3H]-(±)-ABA, were also prepared and values subtracted from experimental samples. Signal corresponding to specific [^3H]-(±)-ABA binding was calculated from the difference between samples with [^3H]-(±)-ABA and those containing 1000-fold excess of non-radiolabelled (+)-ABA. Each sample was replicated 5–10 times and readings averaged. Competition was performed as described above, with the concentration of [^3H]-(±)-ABA at 25 nM in all samples, and non-radiolabeled (+)-ABA added at the indicated concentrations. The same procedure was applied using non-radiolabeled (-)-ABA, PA (phaseic acid), and trans-ABA. Values obtained for the same experiment washed with a 10,000 fold excess of unlabelled (±)-ABA were subtracted to account for any non-specific binding.

For test [2], the target named is non-activated Rubisco. The arrangement: method as in PMID 6417133. The following applies: non-activated Rubisco ref 13; read-out: KD, radiolabelled binding assay; cited from earlier work.
For test [3], the target named is non-activated Rubisco. Further details: method as in earlier work. The following applies: 1 unit / mg ref 49, read-out: Kd by ITC; cited from earlier work.
The subject of test [4] is activated Rubisco. The following applies: read-out: Km, activated Rubisco-RuBP complex; activated Rubisco ref 13; cited from earlier work.
The target of test [5] is T1, spinach Rubisco. In words: Isothermal titration calorimetry. The following applies: for stoichiometry (n) by ITC: 20°C, Independent binding model. In general terms: Isothermal titration calorimetry measures the heat released or taken up as one component is titrated into another.
For test [6], the target named is ABA-receptor (PYL5). The following applies: PYL5 ref 48; read-out: Kd by ITC; cited from earlier work.
Test [7] deals with T1, spinach Rubisco. As to the kind of experiment: Rubisco activation (carbamylation), initial rate analysis with non-activated enzyme. The class given is biochemical. Further details: Commercially available Rubisco from spinach (Sigma-Aldrich); catalogue # R8000; purchased Sigma-Aldrich R8000. The protocol:
Commercially available Rubisco from spinach (Sigma-Aldrich; catalogue # R8000; S1 Fig; specific activity 0.05 units / mg) was dissolved in a buffer containing 15 mM MgCl2 and 25 mM NaHCO3 at pH 8.0 for activation. Each assay (total volume, 1.0 mL) contained 50 mM Bicine (pH 8.0), 15 mM MgCl2, 10 mM NaCl, 5 mm DTT, 5 mM phosphocreatine, 5 mM ATP, 5 mM phosphoenolpyruvate, and 25 mM NaHCO3. This mixture was prepared before each set of experiments. Five minutes before initiating the reaction with the addition of activated Rubisco, the following were added: RuBP at the indicated concentrations), 0.4 mM NADH, 20 units mL-^-1 of glyceraldehyde-3-phosphate dehydrogenase, 20 units mL-^-1 of 3-phosphoglycerate kinase, and 2 units mL^-1 of creatine phosphokinase. Following the addition of activated Rubisco to a final concentration of 0.3 mg mL^-1, the NADH concentration was measured spectrophotometrically (λ = 340 nm) at 5 s intervals for 5 min. Absorbance values were converted to NADH concentrations using an extinction coefficient of 6.22 mM^-1. Reaction rates were evaluated from the slope of absorbance vs. time curves and plotted against concentration of RuBP. […] The non-activated Rubisco was then pre-incubated on ice for at least 10 minutes with or without the indicated concentrations of (+)-ABA, and the reactions initiated and monitored as described above. […]

Where “and” joins values, the source holds several entries; their conditions need not be identical. Equal entries are not always repeated. Where two headings read alike, the source gives them in different places.

With `CC1=CC(=O)CC(C)(C)[C@]1(O)/C=C/C(C)=C\C(=O)O` [(-)-ABA], in test [1], the “Competition: displacement of [3H]-(±)-ABA by non-radiolabeled compound” value (“Competition … by non-radiolabeled compound” for short) is reported as “equally effective as competitors”.

Regarding `CC(=C/C(=O)O)/C=C/[C@]1(O)[C@@]2(C)CO[C@]1(C)CC(=O)C2` [PA, phaseic acid], the “Competition … by non-radiolabeled compound” value in test [1] is recorded as “ineffective as competitors”.

Turning to `O=C(COP(=O)(O)O)[C@H](O)[C@H](O)COP(=O)(O)O` [RuBP, ribulose-1,5-bisphosphate], the dissociation constant (Kd) – broadly, a measure of binding affinity in units of concentration – in test [2] was 21 nM; in test [3], 300 nM; in test [5], 31400 nM. Also, the Km (usually the substrate concentration at which the rate is half of its maximum) in test [4] is 21 µM. Moreover, the “stoichiometry (n) by ITC” value in test [5] was determined as 2.5.

Consider `CC1=CC(=O)CC(C)(C)[C@@]1(O)/C=C/C(C)=C/C(=O)O` [trans-(+)-ABA], for which, in test [1], the “Competition … by non-radiolabeled compound” value is “ineffective as competitors”.

On to Abscisic acid [(+)-ABA], for which the dissociation constant (Kd) in test [6] is 1200 nM. Besides, in test [5], the “stoichiometry (n) by ITC” value is 19.9 and 19. Also, the “Competition … by non-radiolabeled compound” value in test [1] is listed as “equally effective as competitors”. Further, the “effect on initial rate (activation)” value in test [7] (100-250 μM (+)-ABA, 7 mM NaHCO3, S3 Fig, no effect on equilibrium rate (catalysis)) was “inhibitory effect”. In test [7] (ratio of Ki values), the “potency on Rubisco activation versus Rubisco catalysis” value was “more than 10 fold”.

Values taken from article PMC4510133 (PLoS ONE, 2015).
